Experimental data from patent US6608086B2, “Dihydropyridines and new uses thereof” (Synaptic Pharmaceutical Corporation, priority 1993, dated 2003).
Where two headings read alike, the source gives them in different places.

Legend:
[1] = biological target: T1, α1B Human Adrenergic Receptor (Homo sapiens, UniProt P35368); assay: Radioligand binding, [3H]prazosin, cloned human α1B adrenergic receptor; conditions: for Ki: pKi alpha-1 1b
T1 construct: The entire coding region of α1B (1563 bp); expressed in transfected cells
T1 sequence (P35368 1-520): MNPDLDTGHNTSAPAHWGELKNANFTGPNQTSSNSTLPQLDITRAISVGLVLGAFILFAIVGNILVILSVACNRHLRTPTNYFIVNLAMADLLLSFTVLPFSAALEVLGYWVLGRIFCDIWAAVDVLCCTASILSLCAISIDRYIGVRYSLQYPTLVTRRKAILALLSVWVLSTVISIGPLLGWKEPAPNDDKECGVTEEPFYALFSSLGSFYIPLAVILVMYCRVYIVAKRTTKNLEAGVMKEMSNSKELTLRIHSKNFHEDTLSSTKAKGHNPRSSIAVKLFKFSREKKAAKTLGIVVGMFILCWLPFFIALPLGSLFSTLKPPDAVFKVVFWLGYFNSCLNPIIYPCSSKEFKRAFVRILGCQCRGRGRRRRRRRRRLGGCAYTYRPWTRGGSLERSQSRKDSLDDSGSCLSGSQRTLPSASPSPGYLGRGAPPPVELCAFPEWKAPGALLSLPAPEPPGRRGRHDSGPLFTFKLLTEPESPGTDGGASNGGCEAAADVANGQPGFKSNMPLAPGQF
Procedure, shortened: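 Membranes from stably transfected LM(tk−) cells, resuspended in 50 mM Tris-HCl, 1 mM MgCl2, 0.1% ascorbic acid, pH 7.5, were incubated with 0.5 nM [3H]prazosin for 20 min at 37° C. Nonspecific binding defined with 10 μM phentolamine; bound ligand separated by GF/B filtration.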

[2] = biological target: T2, α1A Human Adrenergic Receptor (Homo sapiens, UniProt P25100); assay: Radioligand binding, [3H]prazosin, cloned human α1A adrenergic receptor; conditions: pKi alpha-1 1a, [3H]prazosin
T2 construct: The entire coding region of α1A (1719 bp); expressed in transfected cells
T2 sequence (P25100 1-572): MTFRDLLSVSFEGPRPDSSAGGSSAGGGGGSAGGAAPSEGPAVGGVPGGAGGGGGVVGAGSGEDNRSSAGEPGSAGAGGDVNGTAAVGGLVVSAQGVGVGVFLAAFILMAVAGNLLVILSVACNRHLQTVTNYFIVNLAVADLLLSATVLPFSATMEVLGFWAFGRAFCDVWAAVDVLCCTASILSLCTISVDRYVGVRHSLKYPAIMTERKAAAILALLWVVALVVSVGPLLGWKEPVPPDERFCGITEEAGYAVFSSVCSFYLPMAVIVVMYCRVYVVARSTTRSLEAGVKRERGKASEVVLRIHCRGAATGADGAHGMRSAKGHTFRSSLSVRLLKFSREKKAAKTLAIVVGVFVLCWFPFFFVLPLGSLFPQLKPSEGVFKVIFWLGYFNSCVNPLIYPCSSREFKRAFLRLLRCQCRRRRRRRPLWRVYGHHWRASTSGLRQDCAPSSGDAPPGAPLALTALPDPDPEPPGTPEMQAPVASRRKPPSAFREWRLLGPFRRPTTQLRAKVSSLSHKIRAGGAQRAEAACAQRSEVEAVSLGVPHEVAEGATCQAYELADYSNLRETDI
Procedure, shortened: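 Membranes from LM(tk−) cells transfected with cloned human α1A receptor, prepared in 50 mM Tris-HCl, 1 mM MgCl2, 0.1% ascorbic acid pH 7.5, were incubated with 0.5 nM [3H]prazosin at 37° C for 20 min. Nonspecific binding was defined with 10 μM phentolamine; bound ligand was separated by GF/B filtration.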

[3] = biological target: T3, α1C Human Adrenergic Receptor (Homo sapiens, UniProt P35348); assay: Radioligand binding, [3H]prazosin, cloned human α1C adrenergic receptor
T3 construct: The entire coding region of α1C (1401 bp); expressed in transfected cells
T3 sequence (P35348 1-466): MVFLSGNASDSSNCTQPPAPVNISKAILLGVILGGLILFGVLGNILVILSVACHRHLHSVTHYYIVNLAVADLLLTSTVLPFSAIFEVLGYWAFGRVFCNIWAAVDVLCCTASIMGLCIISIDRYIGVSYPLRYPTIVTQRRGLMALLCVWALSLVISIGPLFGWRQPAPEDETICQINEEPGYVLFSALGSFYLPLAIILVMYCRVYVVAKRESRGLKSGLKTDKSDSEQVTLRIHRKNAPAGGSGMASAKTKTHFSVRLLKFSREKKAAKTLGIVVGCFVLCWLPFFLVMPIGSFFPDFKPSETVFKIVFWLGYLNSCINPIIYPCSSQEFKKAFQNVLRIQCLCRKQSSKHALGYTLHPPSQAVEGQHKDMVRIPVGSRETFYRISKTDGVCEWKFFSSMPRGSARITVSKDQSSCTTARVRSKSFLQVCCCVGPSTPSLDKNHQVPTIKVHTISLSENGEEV
Procedure, shortened: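 Read-out is filter-retained [3H]prazosin (0.5 nM) bound to membranes of LM(tk−) cells stably carrying the human α1C receptor. Incubation ran 20 min at 37° C. at pH 7.5, with 10 μM phentolamine marking nonspecific binding.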

[4] = cloned human receptor in LM(tk-) cell membranes, SEM and n in lines below
[5] = pKi alpha-1 1c, cloned human receptor in LM(tk-) cell membranes, SEM and n in lines below
[6] = cloned human α1B receptor, LM(tk−) cell membranes
[7] = cloned human α1A receptor, LM(tk−) cell membranes
[8] = pKi alpha-1 1c, cloned human α1C receptor, LM(tk−) cell membranes

CCC1=C(C(N)=O)C(c2ccc([N+](=O)[O-])cc2)C(C(=O)NCCCN2CCC(c3ccccc3)(c3ccccc3)CC2)=C(C)N1 (stereo not drawn) [Example 41, 3-Carboxamido-2-ethyl-1,4-dihydro-6-methyl-4-(4-nitrophenyl)-3-{N-[3-(4,4-diphenylpiperidin-1-yl)propyl]}carboxamidopyridine]
melting point: 120 to 124 °C | Ki [1, 4]: 295 nM | Ki [2, 4]: 501 nM | Ki [3, 5]: 1.82 nM

CCC1=C(C(N)=O)C(c2ccc([N+](=O)[O-])cc2)C(C(=O)NCCCN2CCC(c3ccccc3)(c3ccccc3)CC2)=C(CC)N1 (stereo not drawn) [Example 42, 5-carboxamido-2,6-diethyl-1,4-dihydro-4-(4-nitrophenyl)-3-{N-[3-(4,4-diphenylpiperidin-1-yl)propyl]}carboxamidopyridine]
melting point: 119 to 123 °C | Ki [1, 4]: 282 nM | Ki [2, 4]: 447 nM | Ki [3, 5]: 1.26 nM

CC1=C(C(N)=O)C(c2cccc([N+](=O)[O-])c2)C(C(=O)NCCCN2CCC(c3ccccc3)(c3ccccc3)CC2)=C(C)N1 (stereo not drawn) [Example 61, 5-Carboxamido-1,4-dihydro-2,6-dimethyl-4-(3-nitrophenyl)-3-{N-[3-(4,4-diphenylpiperidin-1-yl)propyl]}carboxamidopyridine]
melting point: 144 to 148 °C | Ki [1, 4]: 427 nM | Ki [2, 4]: 851 nM | Ki ([3]; cloned human receptor in LM(tk-) cell membranes, SEM and n in lines below, read-out: pKi alpha-1 1c (converted)): 3.8 nM

CC1=C(C(=O)NCCCN2CCC(c3ccccc3)(c3ccccc3)CC2)C(c2ccc([N+](=O)[O-])cc2)c2c([nH]c(=O)[nH]c2=O)N1 (stereo not drawn) [Example 64]
melting point: 184 to 186 °C | Ki [1, 4]: 355 nM | Ki [2, 4]: 490 nM | Ki [3, 5]: 35.5 nM

CCC1=C(C(=O)NCCCN2CCC(c3ccccc3)(c3ccccc3)CC2)C(c2cccc(OC)c2)C(C(=O)NCCCN2CCC(c3ccccc3)(c3ccccc3)CC2)=C(CC)N1 [Example 112, 2,6-Diethyl-1,4-dihydro-4-(3-methoxyphenyl)-3,5-bis(N-(3-(4,4-diphenylpiperidin-1-yl)propyl)carboxamido)-pyridine]
melting point: 166 to 170 °C | Ki [1, 6]: 23.4 nM | Ki [2, 7]: 30.2 nM | Ki [3, 8]: 24.5 nM

CCC1=C(C(=O)NCCCN2CCC(c3ccccc3)(c3ccccc3)CC2)C(c2cccc(OC)c2)C(C(N)=O)=C(C)N1 (stereo not drawn) [Example 113, 5-Carboxamide-2-ethyl-1,4-dihydro-4-(3-methoxyphenyl)-6-methyl-3-(N-(3-(4,4-diphenylpiperidin-1-yl)propyl)carboxamido)-pyridine]
melting point: 120 to 123 °C | Ki [1, 6]: 347 nM | Ki [2, 7]: 692 nM | Ki [3, 8]: 17.8 nM

CC1=C(C(N)=O)C(c2ccc(S(C)(=O)=O)cc2)C(C(=O)NCCCN2CCC(c3ccccc3)(c3ccccc3)CC2)=C(C)N1 (stereo not drawn) [Example 115, 5-Carboxamido-1,4-4-dihydro-4-(4-methanesufonylphenyl)-2,6-dimethyl-3-(N-(3-(4,4-diphenylpiperidin-1-yl)propyl)carboxamido)-pyridine]
melting point: 206 to 209 °C | Ki [1, 6]: 1450 nM | Ki [2, 7]: 2000 nM | Ki [3, 8]: 58.9 nM

COc1cccc(C2C(C(N)=O)=C(C)NC(C)=C2C(=O)NCCCN2CCC(c3ccccc3)(c3ccccc3)CC2)c1 (stereo not drawn) [Example 117, 5-Carboxamido-1,4-dihydro-4-(3-Methoxyphenyl)-2,6-dimethyl-3-(N-(3-(4,4-diphenylpiperidin-1-yl)propyl)carboxamido)-pyridine]
melting point: 212 to 213 °C | Ki [1, 6]: 562 nM | Ki [2, 7]: 2090 nM | Ki [3, 8]: 27.5 nM

CCC1=C(C(N)=O)C(c2ccc(S(C)(=O)=O)cc2)C(C(=O)NCCCN2CCC(c3ccccc3)(c3ccccc3)CC2)=C(C)N1 (stereo not drawn) [Example 118, 3-Carboxamido-2-ethyl-1,4-dihydro-4-(4-methanesulfonylphenyl)-6-methyl-3-(N-(3-(4,4-diphenylpiperidin-1-yl)propyl)carboxyamido)-pyridine]
melting point: 182 to 183 °C | Ki [1, 6]: 1780 nM | Ki [2, 7]: 2190 nM | Ki [3, 8]: 9.55 nM

CC(C)C1=C(C(N)=O)C(c2ccc([N+](=O)[O-])cc2)C(C(=O)NCCCN2CCC(c3ccccc3)(c3ccccc3)CC2)=C(C(C)C)N1 (stereo not drawn) [Example 127]
melting point: 76 to 80 °C | pKi alpha-1 1b [1, 6]: 6.79 | Ki [2, 7]: 355 nM | Ki [3, 8]: 55 nM

CCC1=C(C(=O)NC)C(c2ccc([N+](=O)[O-])cc2)C(C(=O)NCCCN2CCC(c3ccccc3)(c3ccccc3)CC2)=C(CC)N1 (stereo not drawn) [Example 128, 2,6-Diethyl-1,4-dihydro-5-(N-methyl)carboxamido-4-(4-nitrophenyl)-3-{N-[3-(4,4-diphenylpiperidin-1-yl)propyl]}carboxamidopyridine]
melting point: 123 to 126 °C | Ki [1, 6]: 1050 nM | Ki [2, 7]: 977 nM | Ki [3, 8]: 3.39 nM

CCC1=C(C(=O)NCCCN2CCC(c3ccccc3)(c3ccccc3)CC2)C(c2ccc([N+](=O)[O-])cc2)C(C(=O)OC(C)(C)C)=C(COCCN=[N+]=[N-])N1 (stereo not drawn) [Example 139]
melting point: 62 to 67 °C | Ki [1, 6]: 141 nM | Ki [2, 7]: 479 nM | Ki [3, 8]: 23.4 nM

CCC1=C(C(=O)OCCC#N)C(c2ccc([N+](=O)[O-])cc2)C(C(=O)NCCCN2CCC(c3ccccc3)(c3ccccc3)CC2)=C(COCCN=[N+]=[N-])N1 (stereo not drawn) [Example 141]
melting point: 63 to 67 °C | Ki [1, 6]: 33.1 nM | Ki [2, 7]: 50.1 nM | Ki [3, 8]: 5.37 nM

CCNC(=O)C1=C(COCCN=[N+]=[N-])NC(CC)=C(C(=O)NCCCN2CCC(c3ccccc3)(c3ccccc3)CC2)C1c1ccc([N+](=O)[O-])cc1 (stereo not drawn) [Example 147, 2-((2-Azidoethyl)oxy)methyl-6-ethyl-3-(N-ethyl)carboxamido-1,4-dihydro-4-(4-nitro)phenyl-5-(N-(3-(4,4-diphenylpiperidin-1-yl-)propyl))carboxamidopyridine]
melting point: 83 to 87 °C | Ki [1, 6]: 257 nM | Ki [2, 7]: 372 nM | Ki [3, 8]: 11 nM

CCC1=C(C(=O)NCCCN2CCC(c3ccccc3)(c3ccccc3)CC2)C(c2ccc([N+](=O)[O-])cc2)C(C(N)=O)=C(COCCN=[N+]=[N-])N1 (stereo not drawn) [Example 149, 2-((2-Azidoethyl)oxy)methyl-3-carboxamido-6-ethyl-1,4-dihydro-4-(4-nitro) phenyl-5-(N-(3-(4,4-diphenylpiperidin-1-yl)propyl))carboxamidopyridine]
melting point: 87 to 91 °C | Ki [1, 6]: 245 nM | Ki [2, 7]: 324 nM | Ki [3, 8]: 5.5 nM
